For one experiment, the target named is T1, human ACC2 (Homo sapiens, UniProt O00763).
T1 construct: made in house; host or cells: insect cells (baculoviral expression system)
T1 sequence (O00763 129-2458 limits assumed): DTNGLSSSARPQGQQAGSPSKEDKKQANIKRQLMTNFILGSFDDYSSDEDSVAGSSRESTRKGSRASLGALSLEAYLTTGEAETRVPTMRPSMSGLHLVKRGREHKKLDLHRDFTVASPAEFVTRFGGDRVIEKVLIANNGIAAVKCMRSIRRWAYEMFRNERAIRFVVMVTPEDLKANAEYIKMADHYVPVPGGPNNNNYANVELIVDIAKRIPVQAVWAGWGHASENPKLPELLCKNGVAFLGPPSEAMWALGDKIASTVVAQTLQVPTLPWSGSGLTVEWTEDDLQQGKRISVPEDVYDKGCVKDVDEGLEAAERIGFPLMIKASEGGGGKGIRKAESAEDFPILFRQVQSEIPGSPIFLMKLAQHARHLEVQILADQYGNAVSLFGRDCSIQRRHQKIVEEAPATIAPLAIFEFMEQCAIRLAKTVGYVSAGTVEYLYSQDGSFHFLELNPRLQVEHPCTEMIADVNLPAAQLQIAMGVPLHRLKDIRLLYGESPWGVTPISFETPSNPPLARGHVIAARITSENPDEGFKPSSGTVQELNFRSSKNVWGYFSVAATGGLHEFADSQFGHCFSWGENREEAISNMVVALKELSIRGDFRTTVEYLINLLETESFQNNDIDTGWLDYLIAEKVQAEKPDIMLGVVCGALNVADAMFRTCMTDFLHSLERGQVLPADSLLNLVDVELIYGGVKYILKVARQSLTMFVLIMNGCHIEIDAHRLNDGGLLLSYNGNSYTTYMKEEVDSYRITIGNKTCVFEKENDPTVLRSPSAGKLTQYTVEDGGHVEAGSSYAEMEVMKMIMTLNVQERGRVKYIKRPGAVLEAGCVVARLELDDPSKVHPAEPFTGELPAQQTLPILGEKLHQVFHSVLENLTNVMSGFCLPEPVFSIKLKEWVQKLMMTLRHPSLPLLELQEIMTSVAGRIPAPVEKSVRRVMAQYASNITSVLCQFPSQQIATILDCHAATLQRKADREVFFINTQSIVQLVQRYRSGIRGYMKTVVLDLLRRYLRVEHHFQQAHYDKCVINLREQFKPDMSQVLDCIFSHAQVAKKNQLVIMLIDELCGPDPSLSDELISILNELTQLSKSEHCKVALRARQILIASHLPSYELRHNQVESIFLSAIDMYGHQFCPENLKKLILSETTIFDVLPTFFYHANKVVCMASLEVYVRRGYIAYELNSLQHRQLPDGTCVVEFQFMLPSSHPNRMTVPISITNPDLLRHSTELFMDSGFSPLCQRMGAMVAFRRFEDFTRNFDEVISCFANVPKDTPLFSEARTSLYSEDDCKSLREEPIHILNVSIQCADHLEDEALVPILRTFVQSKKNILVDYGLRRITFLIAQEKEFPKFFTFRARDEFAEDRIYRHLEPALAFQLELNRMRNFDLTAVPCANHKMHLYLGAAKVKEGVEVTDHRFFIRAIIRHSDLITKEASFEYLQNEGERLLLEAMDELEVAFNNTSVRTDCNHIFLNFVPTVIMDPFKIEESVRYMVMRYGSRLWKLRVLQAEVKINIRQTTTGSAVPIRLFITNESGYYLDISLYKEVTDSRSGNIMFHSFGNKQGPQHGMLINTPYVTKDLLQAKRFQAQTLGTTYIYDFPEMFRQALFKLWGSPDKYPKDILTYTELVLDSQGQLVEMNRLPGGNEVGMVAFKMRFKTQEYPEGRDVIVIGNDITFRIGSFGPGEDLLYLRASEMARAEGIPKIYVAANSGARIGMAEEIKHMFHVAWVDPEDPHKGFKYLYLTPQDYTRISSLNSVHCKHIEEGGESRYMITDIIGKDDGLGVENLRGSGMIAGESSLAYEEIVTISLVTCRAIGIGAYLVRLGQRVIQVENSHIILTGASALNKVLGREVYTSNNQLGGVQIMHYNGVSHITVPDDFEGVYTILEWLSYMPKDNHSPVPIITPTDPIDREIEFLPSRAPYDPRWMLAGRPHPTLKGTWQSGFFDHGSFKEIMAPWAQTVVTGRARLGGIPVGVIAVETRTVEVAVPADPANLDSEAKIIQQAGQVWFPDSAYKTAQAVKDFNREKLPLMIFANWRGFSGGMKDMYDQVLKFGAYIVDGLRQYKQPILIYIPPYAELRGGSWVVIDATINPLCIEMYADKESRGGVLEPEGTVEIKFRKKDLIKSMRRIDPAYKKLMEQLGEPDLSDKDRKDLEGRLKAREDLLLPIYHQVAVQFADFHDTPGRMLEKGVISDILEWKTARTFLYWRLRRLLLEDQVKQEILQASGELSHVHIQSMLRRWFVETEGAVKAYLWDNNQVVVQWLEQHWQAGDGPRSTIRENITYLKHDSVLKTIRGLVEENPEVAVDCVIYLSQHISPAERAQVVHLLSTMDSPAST
The experiment in a line: ACC2 assay, spectrophotometric 384 well assay (NADH-linked, coupled lactate dehydrogenase/pyruvate kinase). In kind it is biochemical. The conditions noted are these: ACC2 assay; human ACC2 construct lacking 128 N-terminal amino acids; 25° C., 340 nm, 15 minutes; read-out: IC50. On the procedure: Spectrophotometric 384 Well Assay
Malonyl CoA formation by acetyl CoA carboxylases is stoichometrically linked to the consumption of ATP. ACC2 activity is measured in a NADH-linked kinetic method measuring ADP generated during the ACC reaction using a coupled lactate dehydrogenase/pyruvate kinase reaction.
For biological testing, a human ACC2 construct which lacks the 128 amino acids at the N-terminus for increased solubility (nt 385-6966 in Genbank entry AJ575592) is cloned. The protein is then expressed in insect cells using a baculoviral expression system. Protein purification is performed by anion exchange.
All compounds are dissolved in dimethyl sulfoxide (DMSO) to a concentration of 10 mM.
Assay reactions are then carried out in 384-well plates, with hACC2 in an appropriate dilution and at final assay concentrations (f.c.) of 100 mM Tris (pH 7.5), 10 mM trisodium citrate, 25 mM KHCO3, 10 mM MgCl2, 0.5 mg/ml BSA, 3.75 mM reduced L-glutathione, 15 U/ml lactate dehydrogenase, 0.5 mM phosphoenolpyruvate, 15 U/ml pyruvate kinase, compounds at different concentrations at final DMSO concentrations of 1%.
The enzymatic reaction is then started by addition of a mixture of NADH, acetyl Coenzyme A (both […].) and ATP (500 uM f.c.). The decrease of the optical density (slope S) is then determined at 25° C. at a wavelength of 340 nm over 15 minutes in a spectrophotometric reader.
Each assay microtiter plate contains wells with vehicle instead of compound as controls for the non-inhibited enzyme (100% CTL; ‘HIGH’) and wells without acetyl-CoA as controls for non-specific NADH degradation (0% CTL; ‘LOW’).
The slope S is used for calculation of % CTL=(S(compound)−S(‘LOW’))/(S(‘HIGH’)−S(‘LOW’))100. Compounds will give values between 100% CTL (no inhibition) and 0% CTL (complete inhibition).
For IC50 value determination, the sample slope in the presence of the test compound after subtraction of the low controls (S(compound)−S(‘LOW’)) are used.
An IC50 value is derived from the compound slopes at different dosages after subtraction of the low controls (S(compound)−S(‘LOW’)) by non-linear regression curve fitting (equation y=(A+((B−A)/(1+((C/x)^D))))).
For orientation: IC50 means the midpoint of a concentration-inhibition curve. In the case of `CCOc1ccc(OC2CN(c3ccc([C@H](C)NC(=O)C4(C)CCC4)cc3)C2)cc1` [Example 1.1, (S)-1-Methyl-cyclobutanecarboxylic acid (1-{4-[3-(4-ethoxy-phenoxy)-azetidin-1-yl]-phenyl}-ethyl)-amide], the IC50 was found to be 2590 nM.
For `CCOc1ccc(OC2CN(c3ccc([C@H](C)NC(=O)CC)cc3)C2)cc1` [Example 1.2], the IC50 is 150 nM.
The same measure, in the same setting: under `CCOc1ccc(OC2CN(c3ccc([C@H](C)NC(=O)COC)cc3)C2)cc1` [Example 1.3] stands 1040 nM.
The same measure, in the same setting: the figure for `CCOc1ccc(OC2CN(c3ccc([C@H](C)NC(=O)C(C)C)cc3)C2)cc1` [Example 1.5] is 120 nM; for `CCCC(=O)N[C@@H](C)c1ccc(N2CC(Oc3ccc(OCC)cc3)C2)cc1` [Example 1.6] it is 280 nM.
The same measure, in the same setting: under `CCOc1ccc(OC2CN(c3ccc([C@H](C)NC(=O)C4CCC4)cc3)C2)cc1` [Example 1.7] stands 170 nM.
For `CCOc1ccc(OC2CN(c3ccc([C@H](C)NC(=O)C4CCCC4)cc3)C2)cc1` [Example 1.8], the IC50 was 550 nM.
The same measure, in the same setting: the figure for `CCOc1ccc(OC2CN(c3ccc([C@H](C)NC(=O)C4CC4C)cc3)C2)cc1` (stereo partly shown) [Example 1.9] is 460 nM; for `CCOc1ccc(OC2CN(c3ccc([C@H](C)NC(=O)C4(O)CC4)cc3)C2)cc1` [Example 1.10] it is 3190 nM.
The same measure, in the same setting: under `CCOc1ccc(OC2CN(c3ccc([C@H](C)NC(=O)c4cn[nH]c4)cc3)C2)cc1` [Example 1.11] stands 210 nM; under `CCOc1ccc(OC2CN(c3ccc([C@H](C)NC(=O)C4(C)CC4)cc3)C2)cc1` [Example 1.12], 230 nM.
Same read-out and setting: under `CCOc1ccc(OC2CN(c3ccc([C@H](C)NC(=O)Cn4ccnc4)cc3)C2)cc1` [Example 1.13] stands 480 nM; under `CCOc1ccc(OC2CN(c3ccc([C@H](C)NC(=O)c4conc4C)cc3)C2)cc1` [Example 1.14], 70 nM.
Take `CCOc1ccc(OC2CN(c3ccc([C@H](C)NC(=O)CC4CC4)cc3)C2)cc1` [Example 1.15]: the IC50 is 2560 nM.
On the same count and under the same terms, the figure for `CCOc1ccc(OC2CN(c3ccc([C@H](C)NC(=O)C(C)(C)F)cc3)C2)cc1` [Example 1.17] is 280 nM; for `CCOc1ccc(OC2CN(c3ccc([C@H](C)NC(=O)C4(C#N)CC4)cc3)C2)cc1` [Example 1.18] it is 340 nM; for `CCOc1ccc(OC2CN(c3ccc([C@H](C)NC(=O)C4CC(OC)C4)cc3)C2)cc1` (stereo partly shown) [Example 1.19] it is 590 nM.
Still for that read-out and setting: under `CCOc1ccc(OC2CN(c3ccc([C@H](C)NC(=O)c4cocn4)cc3)C2)cc1` [Example 1.20] stands 330 nM.
Same read-out and setting: under `CCOc1ccc(OC2CN(c3ccc([C@H](C)NC(=O)c4cnn(C)c4)cc3)C2)cc1` [Example 1.21] stands 480 nM; under `CCOc1ccc(OC2CN(c3ccc([C@H](C)NC(=O)Cc4cncnc4)cc3)C2)cc1` [Example 1.22], 450 nM; under `CCOc1ccc(OC2CN(c3ccc([C@H](C)NC(=O)C4(C)COC4)cc3)C2)cc1` [Example 1.23], 1470 nM.
Regarding `CCOc1ccc(OC2CN(c3ccc([C@H](C)NC(=O)C4CC(F)C4)cc3)C2)cc1` (stereo partly shown) [Example 1.24], the IC50 amounted to 220 nM.
`CCOc1ccc(OC2CN(c3ccc([C@H](C)NC(=O)c4ccncc4)cc3)C2)cc1` [Example 1.26]: the IC50 was 1230 nM.
On the same count and under the same terms, the figure for `CCOc1ccc(OC2CN(c3ccc([C@H](C)NC(=O)c4cccnc4)cc3)C2)cc1` [Example 1.27] is 1950 nM.
As for `CCOc1ccc(OC2CN(c3ccc([C@H](C)NC(=O)CO)cc3)C2)cc1` [Example 1.28], the IC50 came out at 1010 nM.
The same measure, in the same setting: under `CCOc1ccc(OC2CN(c3ccc([C@H](C)NC(=O)c4c[nH]cn4)cc3)C2)cc1` [Example 1.29] stands 1160 nM; under `CCOc1ccc(OC2CN(c3ccc([C@H](C)NC(=O)c4c(C)noc4N)cc3)C2)cc1` [Example 1.30], 740 nM.
Still for that read-out and setting: the figure for `CCOc1ccc(OC2CN(c3ccc([C@H](C)NC(=O)c4cc(C)nn4C)cc3)C2)cc1` [Example 1.31] is 1750 nM; for `CCOc1ccc(OC2CN(c3ccc([C@H](C)NC(=O)c4sc(NC(C)=O)nc4C)cc3)C2)cc1` [Example 1.32] it is 50 nM.
Take `CCOc1ccc(OC2CN(c3ccc([C@H](C)NC(=O)c4cn(C)cn4)cc3)C2)cc1` [Example 1.33]: the IC50 was determined as 2520 nM.
The same measure, in the same setting: the figure for `CCOc1ccc(OC2CN(c3ccc([C@H](C)NC(=O)c4cncn4C)cc3)C2)cc1` [Example 1.34] is 2060 nM; for `CCOc1ccc(OC2CN(c3ccc([C@H](C)NC(=O)c4ocnc4C)cc3)C2)cc1` [Example 1.35] it is 400 nM; for `CCOc1ccc(OC2CN(c3ccc([C@H](C)NC(=O)c4ccon4)cc3)C2)cc1` [Example 1.36] it is 1610 nM.
Regarding `CCOc1ccc(OC2CN(c3ccc([C@H](C)NC(=O)c4cnco4)cc3)C2)cc1` [Example 1.37], the IC50 was found to be 170 nM.
Still for that read-out and setting: the figure for `CCOc1ccc(OC2CN(c3ccc([C@H](C)NC(=O)c4scnc4C)cc3)C2)cc1` [Example 1.38] is 780 nM; for `CCOc1ccc(OC2CN(c3ccc([C@H](C)NC(=O)c4oc(C)nc4C)cc3)C2)cc1` [Example 1.39] it is 2250 nM; for `CCOc1ccc(OC2CN(c3ccc([C@H](C)NC(=O)C(C)(C)OC)cc3)C2)cc1` [Example 1.40] it is 6430 nM.
Still for that read-out and setting: the figure for `CCOc1ccc(OC2CN(c3ccc([C@H](C)NC(=O)c4cnc(C)s4)cc3)C2)cc1` [Example 1.41] is 1070 nM; for `CCOc1ccc(OC2CN(c3ccc([C@H](C)NC(=O)c4occc4C)cc3)C2)cc1` [Example 1.42] it is 1700 nM.
On the same count and under the same terms, the figure for `CCOc1ccc(OC2CN(c3ccc([C@H](C)NC(=O)C(C)F)cc3)C2)cc1` (stereo partly shown) [Example 1.43] is 320 nM.
Consider `CCOc1ccc(OC2CN(c3ccc([C@H](C)NC(=O)c4csc(NC(C)=O)n4)cc3)C2)cc1` [Example 1.44], for which the IC50 worked out at 610 nM.
Still for that read-out and setting: under `CCOc1ccc(OC2CN(c3ccc([C@H](C)NC(=O)c4cc(=O)[nH]cn4)cc3)C2)cc1` [Example 1.45] stands 2010 nM; under `CCOc1ccc(OC2CN(c3ccc([C@H](C)NC(=O)C4CC(=O)N(C)C4)cc3)C2)cc1` (stereo partly shown) [Example 1.46], 1730 nM; under `CCOc1ccc(OC2CN(c3ccc([C@H](C)NC(=O)Cc4c[nH]cn4)cc3)C2)cc1` [Example 1.47], 1330 nM.
Same read-out and setting: under `CCOc1ccc(OC2CN(c3ccc([C@H](C)NC(=O)c4ccc5c(c4)nnn5C)cc3)C2)cc1` [Example 1.48] stands 3350 nM; under `CCOc1ccc(OC2CN(c3ccc([C@H](C)NC(=O)Cc4cc[nH]c4)cc3)C2)cc1` [Example 1.49], 1470 nM.
Regarding `CCOc1ccc(OC2CN(c3ccc([C@H](C)NC(=O)c4nc(C)sc4C)cc3)C2)cc1` [Example 1.50], the IC50 worked out at 1060 nM.
On the same count and under the same terms, the figure for `CCOc1ccc(OC2CN(c3ccc([C@H](C)NC(=O)C4CC=CC4)cc3)C2)cc1` [Example 1.51] is 70 nM.
Still for that read-out and setting: the figure for `CCOc1ccc(OC2CN(c3ccc([C@H](C)NC(=O)Cc4cccnc4)cc3)C2)cc1` [Example 1.52] is 970 nM; for `CCOc1ccc(OC2CN(c3ccc([C@H](C)NC(=O)C(C)(F)F)cc3)C2)cc1` [Example 1.53] it is 70 nM; for `CCOc1ccc(OC2CN(c3ccc([C@H](C)NC(=O)Cc4cc(C)no4)cc3)C2)cc1` [Example 1.54] it is 540 nM.
Take `CCOc1ccc(OC2CN(c3ccc([C@H](C)NC(=O)CCCNC(C)=O)cc3)C2)cc1` [Example 1.55]: the IC50 was found to be 440 nM.
Same read-out and setting: under `CCOc1ccc(OC2CN(c3ccc([C@H](C)NC(=O)C4CNC(=O)C4)cc3)C2)cc1` (stereo partly shown) [Example 1.57] stands 1300 nM; under `CCOc1ccc(OC2CN(c3ccc([C@H](C)NC(=O)c4cnc(NC)nc4)cc3)C2)cc1` [Example 1.58], 3900 nM.
Same read-out and setting: under `CCOc1ccc(OC2CN(c3ccc([C@H](C)NC(=O)C4CCC(=O)N4)cc3)C2)cc1` (stereo partly shown) [Example 1.59] stands 2060 nM.
Still for that read-out and setting: the figure for `CCOc1ccc(OC2CN(c3ccc([C@H](C)NC(=O)c4cnc(NC(C)=O)s4)cc3)C2)cc1` [Example 1.60] is 320 nM; for `CCOc1ccc(OC2CN(c3ccc([C@H](C)NC(=O)Cn4cncn4)cc3)C2)cc1` [Example 1.61] it is 1440 nM.

Still in this experiment, the particulars now being: IC50, ACC2 assay; human ACC2 construct lacking 128 N-terminal amino acids; 25° C., 340 nm, 15 minutes.
On to `CCOc1ccc(OC2CN(c3ccc([C@H](C)NC(=O)CF)cc3)C2)cc1` [Example 1.16], for which the IC50 was 110 nM.
